Test results: patent US9877980B2, “Method and composition for treatment or prevention of type 2 diabetes and hyperlipidemia” (Chun-Ching Shih, priority 2016, dated 2018)
Marks after values point to notes of the source that are not given here.

Key:
Format in all cases: in vivo
[1] = tested on: C57BL/6J mice on high-fat diet (HFD); experiment: Absolute tissue weight, body weight, weight gain and food intake in HFD mice; conditions: 4 weeks
Description: (§1) The following experiment was performed and approved by the guidelines of the Institutional Animal Care and Use Committee of Central Taiwan University of Science and Technology. The 4-week old male C57BL/6J mice (total amount n=63) were purchased from the National Laboratory Animal Breeding and Research Center (Taipei, Taiwan). After acclimatization for one week, all of the mice were divided randomly into the control (CON) group and the high-fat diet (HFD) group. For the following 12 weeks, the CON group (n=9) was kept on a low-fat diet (Diet 12450B, Research Diets, Inc., New Brunswick, N.J., USA), while the HFD group (n=54) was exposed to a high-fat diet (Diet 12451, Research Diets, New Brunswick, N.J., USA). The low-fat diet was composed of protein 20%, carbohydrate 70% and fat 10%, whereas the high-fat diet was composed of protein 20%, carbohydrate 35%, and fat 45% (of total energy, % kcal). After HFD exposure for 8 weeks, the HFD group was further randomly subdivided into 6 groups (n=9 per group) to receive different treatments by oral gavage once daily for four weeks and on HFD. […] The HF+B1, HF+B2, and […] are collectively termed BB-treated HFD groups in the following examples. The CON mice were administered vehicle. After dosing for 4 weeks, the mice were given no food at night and sacrificed after 12 h of fasting on the next day. All of the individual tissues were collected and weighed, and portions were instantly frozen using liquid nitrogen and kept at −80° C. for subsequent target gene analysis. Blood samples (0.8 mL) were collected for analysis of blood parameters.
Body weight of each mouse was monitored and measured daily at the same time throughout the experimentation. The difference in body weight between two consecutive days is defined as body weight gain. The food pellets for mice were weighed and put into the food container. Unconsumed pellets of high-fat diet were discarded each day and fresh pellets of high-fat diet were provided to ensure food quality throughout the experimentation. The high-fat food pellets were stored at 4° C.

[2] = tested on: epididymal adipocyte of HFD mice; experiment: Histology of epididymal white adipose tissue (adipocyte hypertrophy); conditions: 4 weeks, three measurements
Description: as §1
Small pieces of epididymal white adipose tissue and liver tissue were fixed with formalin (200 g/kg) neutral buffered solution and embedded in paraffin. Sections of 8 μm […] were cut and stained with hematoxylin and eosin. For microscopic examination, a microscope (Leica, DM2500) was used, and the images were taken using a Leica Digital Camera (DFC-425-C).
Adipocyte hypertrophy, the pathological enlargement of adipocytes, is often found in subjects with type 2 diabetes and hyperlipidemia. To verify the therapeutic effect of the compound of formula I on adipocyte hypertrophy, morphology of the EWAT for the CON group and the BB-treated HFD groups was examined. Micrographs of the EWAT sections for each group were analyzed to determine the mean area of an epididymal adipocyte using the software ImageJ.

PEPCK = experiment: Semi-quantitative RT-PCR of liver mRNA: PEPCK; conditions: HFD mice, 4 weeks, vs HF group
Description: as §1, with “For the following 12 weeks, the CON group (n=9) was kept on a low-fat diet (Diet 12450B, Research Diets, Inc., New Brunswick, N.J., USA), while the HFD group (n=54) was exposed to a high-fat diet (Diet 12451, Research Diets, New Brunswick, N.J., USA). The low-fat diet was composed of protein 20%, carbohydrate 70% and fat 10%, whereas the high-fat diet was composed of protein 20%, carbohydrate 35%, and fat 45% (of total energy, % kcal).” left out
(§2) Total RNA from liver tissue of mice was isolated with a Trizol Reagent (Molecular Research Center, Inc., Cincinnati, Ohio, USA) according to the manufacturer's instructions. The integrity of the extracted total RNA was examined by 2% agarose gel electrophoresis, and the RNA concentration was determined by the ultraviolet (UV) light absorbency at 260 nm and 280 nm (Spectrophotometer U-2800A, Hitachi). The quality of the RNA was confirmed by ethidium bromide staining of 18S and 28S ribosomal RNA after electrophoresis on 2% agarose gel containing 6% formaldehyde.
(§3) Levels of mRNA of genes of interest were quantified by semi-quantitative reverse transcription polymerase chain reaction (RT-PCR). […] PCR products were analyzed by 2% agarose gels and stained with ethidium bromide.

adiponectin = experiment: Semi-quantitative RT-PCR of liver mRNA: adiponectin; conditions: HFD mice; 40 mg/kg/day oral gavage, 4 weeks; vs HF group
Description: The following experiment was performed and approved by the guidelines of the Institutional Animal Care and Use Committee of Central Taiwan University of Science and Technology. The 4-week old male C57BL/6J mice (total amount n=63) were purchased from the National Laboratory Animal Breeding and Research Center (Taipei, Taiwan). After acclimatization for one week, all of the mice were divided randomly into the control (CON) group and the high-fat diet (HFD) group. […] After HFD exposure for 8 weeks, the HFD group was further randomly subdivided into 6 groups (n=9 per group) to receive different treatments by oral gavage once daily for four weeks and on HFD. […] The HF+B1, HF+B2, and […] are collectively termed BB-treated HFD groups in the following examples. […]
as §2, with “The quality of the RNA was confirmed by ethidium bromide staining of 18S and 28S ribosomal RNA after electrophoresis on 2% agarose gel containing 6% formaldehyde.” left out
as §3

In the case of `OCC1O[C@@H](O[C@@H]2Cc3c(O)cc(O)cc3O[C@@H]2c2ccc(O)c(O)c2)C(O)C(O)[C@@H]1O` (single isomer, unassigned; (-)) [compound of formula I, (−)-epicatechin-3-O-β-D-allopyranoside], the “Absolute tissue weight BAT” value ([1]; 10 mg/kg/day oral gavage) is reported as 0.168 ± 0.011 g, the “Absolute tissue weight EWAT” value ([1]; 10 mg/kg/day oral gavage) is reported as 0.906 ± 0.105^d g and the “Absolute tissue weight Liver” value ([1]; 10 mg/kg/day oral gavage) is reported as 0.899 ± 0.036 g. For the same compound, the “Absolute tissue weight MWAT” value ([1]; 10 mg/kg/day oral gavage) was 0.293 ± 0.018 g, the “Absolute tissue weight RWAT” value ([1]; 10 mg/kg/day oral gavage) was 0.280 ± 0.043^d g and the “Absolute tissue weight Skeletal muscle” value ([1]; 10 mg/kg/day oral gavage) was 0.873 ± 0.060 g. The “Absolute tissue weight Visceral fat” value ([1]; 10 mg/kg/day oral gavage) was 1.273 ± 0.147^d g, the Body weight ([1]; 10 mg/kg/day oral gavage) was 27.85 ± 1.04 g and the Food intake ([1]; 10 mg/kg/day oral gavage) was 2.08 ± 0.05 g/day/mouse. For the same compound, the Weight gain ([1]; 10 mg/kg/day oral gavage) was 0.40 ± 0.28 g, the “Absolute tissue weight BAT” value ([1]; 20 mg/kg/day oral gavage) was 0.156 ± 0.017 g and the “Absolute tissue weight EWAT” value ([1]; 20 mg/kg/day oral gavage) was 0.902 ± 0.084^d g. For the same compound, the “Absolute tissue weight Liver” value ([1]; 20 mg/kg/day oral gavage) was 0.866 ± 0.036 g, the “Absolute tissue weight MWAT” value ([1]; 20 mg/kg/day oral gavage) was 0.267 ± 0.021 g and the “Absolute tissue weight RWAT” value ([1]; 20 mg/kg/day oral gavage) was 0.263 ± 0.034^f g. The “Absolute tissue weight Skeletal muscle” value ([1]; 20 mg/kg/day oral gavage) was 0.813 ± 0.077 g, the “Absolute tissue weight Visceral fat” value ([1]; 20 mg/kg/day oral gavage) was 1.199 ± 0.104^e g and the Body weight ([1]; 20 mg/kg/day oral gavage) was 27.88 ± 1.14 g. For the same compound, the Food intake ([1]; 20 mg/kg/day oral gavage) was 2.03 ± 0.03 g/day/mouse, the Weight gain ([1]; 20 mg/kg/day oral gavage) was 0.61 ± 0.43 g and the “Absolute tissue weight BAT” value ([1]; 40 mg/kg/day oral gavage) was 0.144 ± 0.010 g. For the same compound, the “Absolute tissue weight EWAT” value ([1]; 40 mg/kg/day oral gavage) was 0.936 ± 0.075^d g, the “Absolute tissue weight Liver” value ([1]; 40 mg/kg/day oral gavage) was 0.848 ± 0.028 g and the “Absolute tissue weight MWAT” value ([1]; 40 mg/kg/day oral gavage) was 0.236 ± 0.030 g. The “Absolute tissue weight RWAT” value ([1]; 40 mg/kg/day oral gavage) was 0.233 ± 0.026^f g, the “Absolute tissue weight Skeletal muscle” value ([1]; 40 mg/kg/day oral gavage) was 1.156 ± 0.102^d g and the “Absolute tissue weight Visceral fat” value ([1]; 40 mg/kg/day oral gavage) was 1.198 ± 0.075^e g. The Body weight ([1]; 40 mg/kg/day oral gavage) was 27.15 ± 0.84 g, the Food intake ([1]; 40 mg/kg/day oral gavage) was 2.02 ± 0.03 g/day/mouse and the Weight gain ([1]; 40 mg/kg/day oral gavage) was −0.05 ± 0.11^d g. For the same compound, the “mean area of an epididymal adipocyte” value ([2]; 10 mg/kg/day oral gavage) was 6882.8±102.2 μm^2, the “mean area of an epididymal adipocyte” value ([2]; 20 mg/kg/day oral gavage) was 6475.5±102.6 μm^2 and the “mean area of an epididymal adipocyte” value ([2]; 40 mg/kg/day oral gavage) was 6192.7±100.7 μm^2. For the same compound, the “liver mRNA level of PEPCK” value (PEPCK; 10 mg/kg/day oral gavage) was “significantly reduced”, the “liver mRNA level of PEPCK” value (PEPCK; 20 mg/kg/day oral gavage) was “significantly reduced” and the “liver mRNA level of PEPCK” value (PEPCK; 40 mg/kg/day oral gavage) was “significantly reduced”. The “liver adiponectin mRNA level” value (adiponectin) was “enhanced”.
